Values after ≈ are worked out from the molar mass of the structure shown.
Columns and labels:
Format in all cases: functional
Staphylococcus aureus [1] = assay: Antibacterial activity against Staphylococcus aureus ATCC 25923 assessed as reduction in bacterial growth by CLSI protocol based method
Escherichia coli = assay: Antibacterial activity against Escherichia coli ATCC 25922 assessed as reduction in bacterial growth by CLSI protocol based method
Staphylococcus aureus [2] = assay: Antibacterial activity against Staphylococcus aureus ATCC 29213 assessed as reduction in bacterial growth by CLSI protocol based method
Staphylococcus aureus [3] = assay: Antibacterial activity against methicillin resistant Staphylococcus aureus assessed as reduction in bacterial growth by CLSI protocol based method
Pseudomonas aeruginosa [4] = assay: Antibacterial activity against Pseudomonas aeruginosa ATCC 27853 assessed as reduction in bacterial growth by CLSI protocol based method
Staphylococcus aureus [5] = assay: Antibacterial activity against methicillin resistant Staphylococcus aureus 43300 assessed as reduction in bacterial growth by CLSI protocol based method
Acinetobacter baumannii = assay: Antibacterial activity against Acinetobacter baumannii assessed as reduction in bacterial growth by CLSI protocol based method
Pseudomonas aeruginosa [6] = assay: Antibacterial activity against Pseudomonas aeruginosa ATCC 90027 assessed as reduction in bacterial growth by CLSI protocol based method
Pseudomonas aeruginosa [7] = assay: Antibacterial activity against Pseudomonas aeruginosa ATCC 10104 assessed as reduction in bacterial growth by CLSI protocol based method
Pseudomonas aeruginosa [8] = assay: Antibacterial activity against Pseudomonas aeruginosa assessed as reduction in bacterial growth by CLSI protocol based method
Enterococcus faecalis = assay: Antibacterial activity against Enterococcus faecalis assessed as reduction in bacterial growth by CLSI protocol based method
Klebsiella pneumoniae = assay: Antibacterial activity against Klebsiella pneumoniae assessed as reduction in bacterial growth by CLSI protocol based method
[9] = Induction of drug resistance in Pseudomonas aeruginosa ATCC 27853 measured after 12 passages

In the case of `O=C(N/N=C/c1c(O)ccc2ccc(=O)oc12)c1ccc(F)cc1`, the MIC (Staphylococcus aureus [1]) is reported as 256 µg/mL (≈ 785 µM), the MIC (Escherichia coli) is reported as 256 µg/mL (≈ 785 µM) and the MIC (Staphylococcus aureus [2]) is reported as 512 µg/mL (≈ 1570 µM). For the same molecule, the MIC (Staphylococcus aureus [3]) was 512 µg/mL (≈ 1570 µM), the MIC (Pseudomonas aeruginosa [4]) was 512 µg/mL (≈ 1570 µM) and the MIC (Staphylococcus aureus [5]) was 16 µg/mL (≈ 49 µM). The MIC (Acinetobacter baumannii) was 256 µg/mL (≈ 785 µM), the MIC (Pseudomonas aeruginosa [6]) was 512 µg/mL (≈ 1570 µM) and the MIC (Pseudomonas aeruginosa [7]) was 128 µg/mL (≈ 392 µM). For the same molecule, the MIC (Pseudomonas aeruginosa [8]) was 512 µg/mL (≈ 1570 µM), the MIC (Enterococcus faecalis) was 512 µg/mL (≈ 1570 µM) and the MIC (Klebsiella pneumoniae) was 256 µg/mL (≈ 785 µM).

`COC(=O)N/N=C/c1c(O)ccc2ccc(=O)oc12` gave an MIC (Staphylococcus aureus [1]) of 64 µg/mL (≈ 244 µM), an MIC (Escherichia coli) of 1 µg/mL (≈ 3.81 µM) and an MIC (Staphylococcus aureus [2]) of 512 µg/mL (≈ 1950 µM). The MIC (Staphylococcus aureus [3]) was 512 µg/mL (≈ 1950 µM), the MIC (Pseudomonas aeruginosa [4]) was 256 µg/mL (≈ 976 µM) and the MIC (Staphylococcus aureus [5]) was 512 µg/mL (≈ 1950 µM). The MIC (Acinetobacter baumannii) was 128 µg/mL (≈ 488 µM), the MIC (Pseudomonas aeruginosa [6]) was 128 µg/mL (≈ 488 µM) and the MIC (Pseudomonas aeruginosa [7]) was 512 µg/mL (≈ 1950 µM). The MIC (Pseudomonas aeruginosa [8]) was 32 µg/mL (≈ 122 µM), the MIC (Enterococcus faecalis) was 256 µg/mL (≈ 976 µM) and the MIC (Klebsiella pneumoniae) was 128 µg/mL (≈ 488 µM).

With `O=C(N/N=C/c1c(O)ccc2ccc(=O)oc12)c1ccccc1` the MIC (Staphylococcus aureus [1]) was 2 µg/mL (≈ 6.49 µM), the MIC (Escherichia coli) was 2 µg/mL (≈ 6.49 µM) and the MIC (Staphylococcus aureus [2]) was 512 µg/mL (≈ 1660 µM). For the same molecule, the MIC (Staphylococcus aureus [3]) was 256 µg/mL (≈ 830 µM), the MIC (Pseudomonas aeruginosa [4]) was 256 µg/mL (≈ 830 µM) and the MIC (Staphylococcus aureus [5]) was 512 µg/mL (≈ 1660 µM). The MIC (Acinetobacter baumannii) was 512 µg/mL (≈ 1660 µM), the MIC (Pseudomonas aeruginosa [6]) was 32 µg/mL (≈ 104 µM) and the MIC (Pseudomonas aeruginosa [7]) was 1 µg/mL (≈ 3.24 µM). It also gave an MIC (Pseudomonas aeruginosa [8]) of 16 µg/mL (≈ 51.9 µM), an MIC (Enterococcus faecalis) of 128 µg/mL (≈ 415 µM) and an MIC (Klebsiella pneumoniae) of 32 µg/mL (≈ 104 µM).

`CCn1cc(C(=O)O)c(=O)c2cc(F)c(N3CCNCC3)cc21` [NORFLOXACIN] showed an MIC (Staphylococcus aureus [1]) of 2 µg/mL (≈ 6.26 µM), an MIC (Escherichia coli) of 4 µg/mL (≈ 12.5 µM) and an MIC (Staphylococcus aureus [2]) of 2 µg/mL (≈ 6.26 µM). For the same molecule, the MIC (Staphylococcus aureus [3]) was 4 µg/mL (≈ 12.5 µM), the MIC [9] was 128 µg/mL (≈ 401 µM) and the MIC (Pseudomonas aeruginosa [4]) was 4 µg/mL (≈ 12.5 µM). The MIC (Staphylococcus aureus [5]) was 8 µg/mL (≈ 25.1 µM), the MIC (Acinetobacter baumannii) was 2 µg/mL (≈ 6.26 µM) and the MIC (Pseudomonas aeruginosa [6]) was 2 µg/mL (≈ 6.26 µM). For the same molecule, the MIC (Pseudomonas aeruginosa [7]) was 5 µg/mL (≈ 15.7 µM), the MIC (Pseudomonas aeruginosa [8]) was 4 µg/mL (≈ 12.5 µM) and the MIC (Enterococcus faecalis) was 4 µg/mL (≈ 12.5 µM). It also gave an MIC (Klebsiella pneumoniae) of 4 µg/mL (≈ 12.5 µM).

With `O=c1ccc2ccc(O)c(/C=N/NS(=O)(=O)c3cccc4c3OCC4)c2o1` the MIC (Staphylococcus aureus [1]) was 512 µg/mL (≈ 1330 µM), the MIC (Escherichia coli) was 512 µg/mL (≈ 1330 µM) and the MIC (Staphylococcus aureus [2]) was 512 µg/mL (≈ 1330 µM). The MIC (Staphylococcus aureus [3]) was 512 µg/mL (≈ 1330 µM), the MIC (Pseudomonas aeruginosa [4]) was 512 µg/mL (≈ 1330 µM) and the MIC (Staphylococcus aureus [5]) was 512 µg/mL (≈ 1330 µM). It also gave an MIC (Acinetobacter baumannii) of 512 µg/mL (≈ 1330 µM), an MIC (Pseudomonas aeruginosa [6]) of 512 µg/mL (≈ 1330 µM) and an MIC (Pseudomonas aeruginosa [7]) of 512 µg/mL (≈ 1330 µM). It also gave an MIC (Pseudomonas aeruginosa [8]) of 512 µg/mL (≈ 1330 µM), an MIC (Enterococcus faecalis) of 512 µg/mL (≈ 1330 µM) and an MIC (Klebsiella pneumoniae) of 512 µg/mL (≈ 1330 µM).

`O=C(N/N=C/c1c(O)ccc2ccc(=O)oc12)c1ccc(Cl)cc1` showed an MIC (Staphylococcus aureus [1]) of 256 µg/mL (≈ 747 µM), an MIC (Escherichia coli) of 256 µg/mL (≈ 747 µM) and an MIC (Staphylococcus aureus [2]) of 256 µg/mL (≈ 747 µM). It also gave an MIC (Staphylococcus aureus [3]) of 512 µg/mL (≈ 1490 µM), an MIC (Pseudomonas aeruginosa [4]) of 256 µg/mL (≈ 747 µM) and an MIC (Staphylococcus aureus [5]) of 512 µg/mL (≈ 1490 µM). The MIC (Acinetobacter baumannii) was 256 µg/mL (≈ 747 µM), the MIC (Pseudomonas aeruginosa [6]) was 256 µg/mL (≈ 747 µM) and the MIC (Pseudomonas aeruginosa [7]) was 32 µg/mL (≈ 93.4 µM). For the same molecule, the MIC (Pseudomonas aeruginosa [8]) was 256 µg/mL (≈ 747 µM), the MIC (Enterococcus faecalis) was 256 µg/mL (≈ 747 µM) and the MIC (Klebsiella pneumoniae) was 256 µg/mL (≈ 747 µM).

Work on `Cc1ccc(S(=O)(=O)N/N=C/c2c(O)ccc3ccc(=O)oc23)cc1` yielded an MIC (Staphylococcus aureus [1]) of 512 µg/mL (≈ 1430 µM), an MIC (Escherichia coli) of 256 µg/mL (≈ 714 µM) and an MIC (Staphylococcus aureus [2]) of 256 µg/mL (≈ 714 µM). It also gave an MIC (Staphylococcus aureus [3]) of 512 µg/mL (≈ 1430 µM), an MIC (Pseudomonas aeruginosa [4]) of 512 µg/mL (≈ 1430 µM) and an MIC (Staphylococcus aureus [5]) of 512 µg/mL (≈ 1430 µM). It also gave an MIC (Acinetobacter baumannii) of 512 µg/mL (≈ 1430 µM), an MIC (Pseudomonas aeruginosa [6]) of 512 µg/mL (≈ 1430 µM) and an MIC (Pseudomonas aeruginosa [7]) of 512 µg/mL (≈ 1430 µM). It also gave an MIC (Pseudomonas aeruginosa [8]) of 512 µg/mL (≈ 1430 µM), an MIC (Enterococcus faecalis) of 512 µg/mL (≈ 1430 µM) and an MIC (Klebsiella pneumoniae) of 512 µg/mL (≈ 1430 µM).

`Cc1ncc([N+](=O)[O-])n1CC(=O)N/N=C/c1c(O)ccc2ccc(=O)oc12` showed an MIC (Staphylococcus aureus [1]) of 4 µg/mL (≈ 10.8 µM), an MIC (Escherichia coli) of 256 µg/mL (≈ 689 µM) and an MIC (Staphylococcus aureus [2]) of 256 µg/mL (≈ 689 µM). For the same molecule, the MIC (Staphylococcus aureus [3]) was 256 µg/mL (≈ 689 µM), the MIC (Pseudomonas aeruginosa [4]) was 8 µg/mL (≈ 21.5 µM) and the MIC (Staphylococcus aureus [5]) was 128 µg/mL (≈ 345 µM). The MIC (Acinetobacter baumannii) was 256 µg/mL (≈ 689 µM), the MIC (Pseudomonas aeruginosa [6]) was 32 µg/mL (≈ 86.2 µM) and the MIC (Pseudomonas aeruginosa [7]) was 64 µg/mL (≈ 172 µM). For the same molecule, the MIC (Pseudomonas aeruginosa [8]) was 256 µg/mL (≈ 689 µM), the MIC (Enterococcus faecalis) was 32 µg/mL (≈ 86.2 µM) and the MIC (Klebsiella pneumoniae) was 256 µg/mL (≈ 689 µM).

Work on `Nc1ncc(C(=O)N/N=C/c2c(O)ccc3ccc(=O)oc23)s1` yielded an MIC (Staphylococcus aureus [1]) of 1 µg/mL (≈ 3.03 µM), an MIC (Escherichia coli) of 128 µg/mL (≈ 387 µM) and an MIC (Staphylococcus aureus [2]) of 256 µg/mL (≈ 775 µM). For the same molecule, the MIC (Staphylococcus aureus [3]) was 16 µg/mL (≈ 48.4 µM), the MIC (Pseudomonas aeruginosa [4]) was 32 µg/mL (≈ 96.9 µM) and the MIC (Staphylococcus aureus [5]) was 64 µg/mL (≈ 194 µM). It also gave an MIC (Acinetobacter baumannii) of 1 µg/mL (≈ 3.03 µM), an MIC (Pseudomonas aeruginosa [6]) of 1 µg/mL (≈ 3.03 µM) and an MIC (Pseudomonas aeruginosa [7]) of 2 µg/mL (≈ 6.05 µM). The MIC (Pseudomonas aeruginosa [8]) was 256 µg/mL (≈ 775 µM), the MIC (Enterococcus faecalis) was 128 µg/mL (≈ 387 µM) and the MIC (Klebsiella pneumoniae) was 8 µg/mL (≈ 24.2 µM).

Work on `O=c1ccc2ccc(O)c(/C=N/NS(=O)(=O)Cc3ccccc3)c2o1` yielded an MIC (Staphylococcus aureus [1]) of 38 µg/mL (≈ 106 µM), an MIC (Escherichia coli) of 256 µg/mL (≈ 714 µM) and an MIC (Staphylococcus aureus [2]) of 16 µg/mL (≈ 44.6 µM). The MIC (Staphylococcus aureus [3]) was 256 µg/mL (≈ 714 µM), the MIC (Pseudomonas aeruginosa [4]) was 512 µg/mL (≈ 1430 µM) and the MIC (Staphylococcus aureus [5]) was 512 µg/mL (≈ 1430 µM). For the same molecule, the MIC (Acinetobacter baumannii) was 512 µg/mL (≈ 1430 µM), the MIC (Pseudomonas aeruginosa [6]) was 512 µg/mL (≈ 1430 µM) and the MIC (Pseudomonas aeruginosa [7]) was 512 µg/mL (≈ 1430 µM). The MIC (Pseudomonas aeruginosa [8]) was 512 µg/mL (≈ 1430 µM), the MIC (Enterococcus faecalis) was 128 µg/mL (≈ 357 µM) and the MIC (Klebsiella pneumoniae) was 512 µg/mL (≈ 1430 µM).

Reference: ChEMBL document CHEMBL5385944, “Hydrazyl hydroxycoumarins as new potential conquerors towards Pseudomonas aeruginosa” (Bioorg Med Chem Lett, 2024)
